{"source": "patent US20230220047A1", "about": "“PEPTIDES FOR TREATMENT OF SEPSIS AND CANCER” (NORWEGIAN UNIVERSITY OF SCIENCE AND TECHNOLOGY (NTNU), priority 2020, published 2023)", "assay_type_in_all_cases": "cell-based", "key": {"human IL-1 receptor": {"tested_on": "human IL-1 receptor", "test": "HEK-Blue IL-1R cells stimulated with human recombinant IL-1β", "text": "TLR2 and 4, and the endosomal TLRs 7-9, use the Myddosome signaling complex to activate transcription of pro-inflammatory cytokines, and endosomal TLRs also activate expression of type I IFNs via the same signaling complex. There are also several IL-1-like receptors including the IL-1 receptor (IL-1R) itself, which is characterized by extracellular immunoglobulin-like domains and intracellular Toll/Interleukin-1R (TIR) domains. These receptors also use the Myddosome complex to initiate downstream signaling. Therefore, we decided to test if signaling downstream of human IL-1R could be altered by the P7-Pen peptide. We used HEK-Blu IL-1R cells (Invivogen) that endogenously express the human IL-1 receptor. HEK-Blue IL-1R cells express a SEAP reporter gene under the control of the IFNβ minimal promoter fused to five NF-κB and five AP-1 binding sites. Binding of IL-1β to its receptor IL-1R on the surface of HEK-Blue IL-1R cells triggers a signaling cascade leading to the activation NF-κB and the subsequent production of SEAP.\nIn the assay, HEK-Blue IL-1R cells were pre-treated with control peptide or P7-Pen and stimulated with human recombinant II-1β (hII-1β) for up to 3 hr or for 24 hr. Stimulation of cells by TLR2 and 4 as well as by IL-1β would result in fast posttranslational modifications of IRAK1 in the Myddosome, and in phosphorylation of p38 MAPK. […]"}, "TLR2": {"tested_on": "TLR2", "test": "Primary human macrophages stimulated with FSL-1: cytokine mRNA, Western blot, IRAK precipitations", "details": "primary human macrophages (data not shown)", "protocol": "(§1) Primary human macrophages (PBMC derived, differentiated in media with 10% human serum and M-CSF 20 ng/ml, 7 days) were stimulated with K12 LPS (100 ng/ml), FSL-1 (100 ng/ml) or CL075 (3 μg/ml). […] (B) qPCR for mRNA expression of IFNβ, IL-6, TNF and IL-1β, average for three biological replicates, error bars ±SD.\n(§2) Primary human macrophages (7 days) were pre-treated with Pen or P7-Pen (15 μM) for 30 min before addition of LPS (100 ng/ml), FSL-1 (100 ng/ml) or CL075 (3 μg/ml). A: Protein expression in lysates for input control. B,C: Precipitations were performed using sheep anti-IRAK4 (B) or anti-IRAK1 (C) polyclonal antibodies covalently bound to magnetic beads.\nThe effect of P7-Pen on TLR2-mediated pro-inflammatory cytokine expression was investigated."}, "TLR4": {"tested_on": "TLR4", "test": "Western blot of LPS signalling in THP-1 cells and primary human monocytes", "protocol": "Protein pellets were dissolved by heating protein pellets for 10 min at 95° C. in buffer containing 4 M urea, 1 SDS (Sigma) and NuPAGE® LDS Sample Buffer (4×) (Thermo Fisher Scientific). Otherwise, lysates were made using 1× RIPA lysis buffer (150 mM NaCl, 50 mM TrisHCl (pH 7.5), 1% Triton X100, 5 mM EDTA, protease inhibitors, phosphatase inhibitors). For Western blot analysis we used pre-cast protein gels NuPAGE™ Novex™ and iBlot Transfer Stacks iBlot Gel Transfer Device (Thermo Fisher Scientific). Proteins were transferred to the membrane by dry-blotting using iBlot® 2 NC Regular/Mini Stacks (Life Technologies) in the iBlot 2 Dry Blotting System (Life Technologies). After secondary antibody incubation, membranes were washed and incubated with HRP substrate solution (SuperSignal™ West Femto Maximum Sensitivity Substrate (Thermo Fisher Scientific)). Images were taken using Odyssey® Fc (LI-CORE). Quantification graphs were generated by the analysis of signal intensities for protein bands (protein of interest and endogenous loading control—β-tubulin from the same membrane) using Odyssey software (LI-CORE). Data were normalised to the expression levels of β-tubulin and presented as a relative fold change to the control sample.\nFurther, we tested the effect of P7-Pen on phosphorylation of p38 MAPK, IκBα degradation and modification of IRAK1 in human macrophages (THP-1 cells) and primary human monocytes. P7-Pen inhibited LPS-mediated phosphorylation of p38 MAPK (FIG. 24A) and inhibited IRAK1 ubiquitination/phosphorylation (visualised as band shift to higher molecular weight) in primary monocytes (FIG. 24B)."}, "TLR8 [1]": {"tested_on": "TLR8", "test": "Primary human macrophages stimulated with CL075: cytokine mRNA, Western blot, IRAK precipitations", "details": "TLR8-stimulated cells, 15 μM, CL075 3 μg/ml", "protocol": "as §1, §2"}, "TLR8 [2]": {"tested_on": "TLR8", "test": "qPCR of CL075-induced TLR8-mediated cytokine expression in primary human monocytes", "details": "15 μM, CL075 1 μg/ml", "protocol": "Cells were pre-treated with 15 μM peptides for 30 min, followed by addition of LPS (100 ng/ml) (A) or CL075 (1 μg/ml) (B) for 2 or 4 h. Each dot on the graphs corresponds to the average value for one donor, the lines show the mean values for all donors, and error bars indicate the SD.\nTotal RNA was isolated from the cells using Qiazol reagent #79306 from QIAGEN, and chloroform extraction followed by purification on RNeasy Mini columns with DNAse digestion (Qiagen). cDNA was prepared using the Maxima First Strand cDNA Synthesis Kit for quantitative real-time polymerase chain reaction (RT-qPCR) (Thermo Fisher Scientific) according to the manufacturer's protocol. qPCR was performed using the PerfeCTa qPCR FastMix (Quanta Biosciences) in replicates and cycled in a StepOnePlus™ Real-Time PCR cycler. The following TaqMan® Gene Expression Assays (Applied Biosystems®) were used: IFNβ (Hs01077958_s1), TNF (Hs00174128_m1), TBP (Hs00427620_m1), CXCL10 (Hs01124251_g1), IL-6 (Hs00174131_m1) and IL-1β (Hs01555410_m1), for human cells; Ifnβ (Mm00439552_s1), Tnf (Mm00443258_m1), Tbp (Mm01277042_m1) and II-1β (Mm00434228_m1), for mouse cells. […] Relative expression was calculated using Pfaffl's mathematical model (Pfaffl, Nucleic Acids Research 29(9): e45, 2001). […] Statistical significance was evaluated in GraphPad Prizm 5.03. […] The difference between the two groups was determined by two-tailed t test. […]"}}, "data": [{"substance": "Ac-ITVYASVTLTGRQIKIWFQNRRMKWKK-NH2 [Peptide P7-Pen]", "values": [{"measurement": "IL-1β-induced IRAK1 posttranslational modifications or p-p38 MAPK levels", "setting": "human IL-1 receptor; data not shown", "result": "no effect"}, {"measurement": "IL-1β-mediated secretion of SEAP", "setting": "human IL-1 receptor; versus cells pre-treated with control peptide Pen (data not shown)", "result": "comparable"}, {"measurement": "expression of pro-inflammatory cytokines induced by TLR2/6 agonist FSL-1", "setting": "TLR2", "result": "no effect"}, {"measurement": "LPS-mediated phosphorylation of p38 MAPK", "setting": "TLR4; THP-1 cells", "result": "inhibited"}, {"measurement": "IRAK1 ubiquitination/phosphorylation", "setting": "TLR4; primary monocytes, LPS", "result": "inhibited"}, {"measurement": "IRAK1 and IRAK4 recruitment to MyD88 at an early time point", "setting": "TLR8 [1]", "result": "inhibitory effect"}, {"measurement": "late recruitment of IRAKs or phosphorylation of p38 MAPKs", "setting": "TLR8 [1]", "result": "no effect"}, {"measurement": "CL075-induced TLR8-mediated IFNβ mRNA expression", "setting": "TLR8 [2]", "result": "inhibited"}, {"measurement": "expression of proinflammatory cytokines", "setting": "TLR8 [2]", "result": "no significant effect"}]}]}
